Experimental findings from patent US9309263B2, “Fused multi-cyclic sulfone compounds as inhibitors of beta-secretase and methods of use thereof” (AMGEN INC., priority 2013, dated 2016) are described below.

Read-outs that look alike come from different tables or passages of the source.

Assay [1] concerns the target Beta Secretase enzyme (BACE) (Homo sapiens, UniProt P56817). As to the kind of experiment: In vitro enzymatic BACE FRET assay. In kind it is biochemical. The following applies: read-out: BACE1 FRET assay IC50. The gist of the method:
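Enzyme (0.2 nM) pre-incubated 1 h with serially diluted inhibitors in 0.05 M acetate pH 4.2, 10% DMSO, 100 uM genapol. Reaction started with 50 nM fluorophore/quencher peptide FRET substrate, run 1 h, stopped with Tris to neutral pH. Fluorescence read at excitation 488 nm, […].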

Assay [2] deals with Aβ 40 in conditioned medium of cells stably expressing Amyloid Precursor Protein (APP). As to the kind of experiment: In vitro BACE cell-based assay (Aβ 40 sandwich ELISA). The gist of the method:
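APP-expressing cells, 24 h pre-culture in DMEM/10% FBS, treated 24 h with 10-point compound dilutions from 100 or 10 μM top, 0.1% DMSO final. Secreted Aβ40 quantified by sandwich ELISA (pAb40 capture, biotinylated 6E10 detection, europium TRF); IC50 from percent inhibition versus concentration.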

Assay [3] deals with Cathepsin D (Cat D) (Homo sapiens, UniProt P07339). As to the kind of experiment: In vitro enzymatic Cathepsin D (Cat D) FRET assay. In kind it is biochemical. The following applies: read-out: CatD IC50. A digest of the protocol:
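Recombinant CHO-expressed enzyme (9 nM) pre-incubated 1 h with serially diluted inhibitor in 0.05 M citrate pH 3.5, 10% DMSO final, 5 mM CHAPS. Reaction started with 20 nM FRET peptide substrate, run 1 h, stopped with Tris to neutral pH; fluorescence read at ex 500/em 580 nm.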

Setting [4] is: average IC50, in vitro enzymatic BACE FRET assay.
The mark [5] stands for this setting: Homo sapiens, HEK293, average IC50, HEK cell assay, Aβ 40 readout.
[6] abbreviates: Homo sapiens, HEK293, HEK cells, average IC50.

Beta Secretase enzyme (BACE), sequence (P56817 46-501): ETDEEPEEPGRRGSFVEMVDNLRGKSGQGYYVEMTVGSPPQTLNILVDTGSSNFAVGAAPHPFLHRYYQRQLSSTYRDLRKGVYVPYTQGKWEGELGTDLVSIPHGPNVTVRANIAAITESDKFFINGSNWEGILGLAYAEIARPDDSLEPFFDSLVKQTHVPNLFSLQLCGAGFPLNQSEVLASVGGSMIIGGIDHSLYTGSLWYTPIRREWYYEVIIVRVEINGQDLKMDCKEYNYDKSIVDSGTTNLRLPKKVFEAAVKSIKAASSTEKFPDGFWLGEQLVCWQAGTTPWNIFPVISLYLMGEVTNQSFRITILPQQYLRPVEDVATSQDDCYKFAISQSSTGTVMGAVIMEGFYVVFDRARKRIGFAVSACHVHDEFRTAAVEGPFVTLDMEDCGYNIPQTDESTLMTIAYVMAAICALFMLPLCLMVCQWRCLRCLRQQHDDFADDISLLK
Cathepsin D (Cat D), sequence (P07339 65-412, species assumed): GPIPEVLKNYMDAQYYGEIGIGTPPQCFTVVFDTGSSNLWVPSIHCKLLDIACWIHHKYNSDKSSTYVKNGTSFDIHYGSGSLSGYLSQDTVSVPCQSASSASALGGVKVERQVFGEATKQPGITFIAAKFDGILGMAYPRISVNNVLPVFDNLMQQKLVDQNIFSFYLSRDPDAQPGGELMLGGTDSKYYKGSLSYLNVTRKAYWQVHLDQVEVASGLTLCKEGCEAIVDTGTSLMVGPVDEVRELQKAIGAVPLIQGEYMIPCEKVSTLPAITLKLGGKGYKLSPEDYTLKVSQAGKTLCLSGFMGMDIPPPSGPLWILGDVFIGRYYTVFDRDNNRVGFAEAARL

`CC1(C)C(N)=N[C@]2(CF)c3cc(Nc4nccc5cc(Cl)cnc45)ccc3OCC[C@@H]2S1(=O)=O` [Example 154, (4aS,11bS)-N1^~10^~-(3-chloro-1,7-naphthyridin-8-yl)-11b-(fluoromethyl)-3,3-dimethyl-4a,5,6,11b-tetrahydro-3H-[1]benzoxepino[4,5-b][1,4]thiazine-2,10-diamine 4,4-dioxide]: the IC50 in assay [1] (setting [4]) came out at 0.003 µM; in assay [2] (average IC50, HEK cell assay, Aβ 40 readout), 0.032 µM; in assay [3] (Cathepsin D FRET assay), 462 µM.

For `COc1cnc2c(Nc3ccc4c(c3)[C@@]3(CF)N=C(N)C(C)(C)S(=O)(=O)[C@H]3CCO4)nccc2n1` [Example 155, (4aS,11bS)-11b-(fluoromethyl)-N^~10^~-(2-methoxypyrido[3,4-b]pyrazin-5-yl)-3,3-dimethyl-4a,5,6,11b-tetrahydro-3H-[1]benzoxepino[4,5-b][1,4]thiazine-2,10-diamine 4,4-dioxide], the IC50 is 0.014 µM in assay [1] (setting [4]), 0.062 µM in assay [2] (setting [5]) and > 400 µM in assay [3] (Cathepsin D FRET assay).

Turning to `COc1cnc2c(Nc3ccc4c(c3)[C@@]3(C)N=C(N)C(C)(C)S(=O)(=O)[C@@H]3CCO4)nccc2n1` [Example 156, (4aR,11bR)-N^~10^~-(2-methoxypyrido[3,4-b]pyrazin-5-yl)-3,3,11b-trimethyl-4a,5,6,11b-tetrahydro-3H-[1]benzoxepino[4,5-b][1,4]thiazine-2,10-diamine 4,4-dioxide], the IC50 in assay [1] (setting [4]) was 0.011 µM; in assay [2] (setting [5]), 0.014 µM; in assay [3] (Cathepsin D FRET assay), 1030 µM.

For the molecule `Cc1cc(OC(F)F)cnc1C(=O)Nc1ccc2c(c1)[C@@]1(C)N=C(N)C(C)(C)S(=O)(=O)[C@@H]1CCO2` [Example 157, N-((4aR,11bR)-2-amino-3,3,11b-trimethyl-4,4-dioxido-4a,5,6,11b-tetrahydro-3H-[1]benzoxepino[4,5-b][1,4]thiazin-10-yl)-5-(difluoromethoxy)-3-methyl-2-pyridinecarboxamide], the IC50 in assay [1] (setting [4]) was 0.002 µM; in assay [2] (setting [5]), 0.003 µM; in assay [3] (Cathepsin D FRET assay), 1200 µM.

As for `COc1cnc(C(=O)Nc2ccc3c(c2)[C@@]2(C)N=C(N)C(C)(C)S(=O)(=O)[C@@H]2CCO3)c(C)c1` [Example 158, N-((4aR,11bR)-2-amino-3,3,11b-trimethyl-4,4-dioxido-4a,5,6,11b-tetrahydro-3H-[1]benzoxepino[4,5-b][1,4]thiazin-10-yl)-5-methoxy-3-methyl-2-pyridinecarboxamide], the values for the IC50 in assay [1] (setting [4]), in assay [2] (setting [5]) and in assay [3] (Cathepsin D FRET assay) were 0.021 µM, 0.007 µM and > 400 µM, respectively.

For `COc1cnc2c(Nc3ccc4c(c3)[C@@]3(C)N=C(N)C(C)(C)S(=O)(=O)[C@H]3CCO4)nccc2n1` [Example 159, (4aS,11bR)-N^~10^~-(2-methoxypyrido[3,4-b]pyrazin-5-yl)-3,3,11b-trimethyl-4a,5,6,11b-tetrahydro-3H-[1]benzoxepino[4,5-b][1,4]thiazine-2,10-diamine 4,4-dioxide], the IC50 in assay [1] (setting [4]) was 0.075 µM; in assay [2] (setting [5]) it was 0.052 µM; in assay [3] (Cathepsin D FRET assay) it was > 400 µM.

As for `Cc1cc(OC(F)F)cnc1C(=O)Nc1ccc2c(c1)[C@@]1(C)N=C(N)C(C)(C)S(=O)(=O)[C@H]1CCO2` [Example 160, N-((4aS,11bR)-2-amino-3,3,11b-trimethyl-4,4-dioxido-4a,5,6,11b-tetrahydro-3H-[1]benzoxepino[4,5-b][1,4]thiazin-10-yl)-5-(difluoromethoxy)-3-methyl-2-pyridinecarboxamide], the IC50 amounted to 0.01 µM in assay [1] (average IC50), 0.003 µM in assay [2] (setting [6]) and 1170 µM in assay [3].

Consider `COc1cnc(C(=O)Nc2ccc3c(c2)[C@@]2(C)N=C(N)C(C)(C)S(=O)(=O)[C@H]2CCO3)c(C)c1` [Example 161, N-((4aS,11bR)-2-amino-3,3,11b-trimethyl-4,4-dioxido-4a,5,6,11b-tetrahydro-3H-[1]benzoxepino[4,5-b][1,4]thiazin-10-yl)-5-methoxy-3-methyl-2-pyridinecarboxamide], for which the IC50 was 0.032 µM in assay [1] (average IC50), 0.008 µM in assay [2] (setting [6]) and 878 µM in assay [3].

For `COc1cnc2c(Nc3ccc4c(c3)[C@@]3(C)N=C(N)C(C)(C)S(=O)(=O)[C@@H]3CCO4)ncnc2c1` [Example 162, (4aR,11bR)-N^~10^~-(7-methoxypyrido[3,2-d]pyrimidin-4-yl)-3,3,11b-trimethyl-4a,5,6,11b-tetrahydro-3H-[1]benzoxepino[4,5-b][1,4]thiazine-2,10-diamine 4,4-dioxide], the IC50 amounted to 0.007 µM in assay [1] (average IC50), 0.009 µM in assay [2] (setting [6]) and 619 µM in assay [3].

Regarding `Cc1cc(C(F)F)cnc1C(=O)Nc1ccc2c(c1)[C@@]1(C)N=C(N)C(C)(C)S(=O)(=O)[C@@H]1CCO2` [Example 163, N-((4aR,11bR)-2-amino-3,3,11b-trimethyl-4,4-dioxido-4a,5,6,11b-tetrahydro-3H-[1]benzoxepino[4,5-b][1,4]thiazin-10-yl)-5-(difluoromethyl)-3-methyl-2-pyridinecarboxamide], the values for the IC50 in assay [1] (average IC50), in assay [2] (setting [6]) and in assay [3] were 0.005 µM, 0.003 µM and > 400 µM, respectively.

On to `CC1(C)C(N)=N[C@]2(C)c3cc(NC(=O)c4cnc(C(F)(F)F)cn4)ccc3OCC[C@H]2S1(=O)=O` [Example 164, N-((4aR,11bR)-2-amino-3,3,11b-trimethyl-4,4-dioxido-4a,5,6,11b-tetrahydro-3H-[1]benzoxepino[4,5-b][1,4]thiazin-10-yl)-5-(trifluoromethyl)-2-pyrazinecarboxamide], for which the IC50 came out at 0.028 µM in assay [1] (average IC50), 0.017 µM in assay [2] (setting [6]) and 1600 µM in assay [3].

For the molecule `CC1(C)C(N)=N[C@]2(C)c3cc(NC(=O)c4ccc(C(F)(F)F)cn4)ccc3OCC[C@H]2S1(=O)=O` [Example 165, N-((4aR,11bR)-2-amino-3,3,11b-trimethyl-4,4-dioxido-4a,5,6,11b-tetrahydro-3H-[1]benzoxepino[4,5-b][1,4]thiazin-10-yl)-5-(trifluoromethyl)-2-pyridinecarboxamide], the IC50 in assay [1] (average IC50) worked out at 0.006 µM; in assay [2] (setting [6]), 0.004 µM; in assay [3], 1070 µM.

Turning to `COc1cnc(C(=O)Nc2ccc3c(c2)[C@@]2(C)N=C(N)C(C)(C)S(=O)(=O)[C@@H]2CCO3)cn1` [Example 166, N-((4aR,11bR)-2-amino-3,3,11b-trimethyl-4,4-dioxido-4a,5,6,11b-tetrahydro-3H-[1]benzoxepino[4,5-b][1,4]thiazin-10-yl)-5-methoxy-2-pyrazinecarboxamide], the IC50 in assay [1] (average IC50) was found to be 0.017 µM; in assay [2] (setting [6]) it was 0.0074 µM; in assay [3], 1130 µM.

For the molecule `CC1(C)C(N)=N[C@]2(C)c3cc(Nc4ncnc5cc(OCC6CC6)cnc45)ccc3OCC[C@H]2S1(=O)=O` [Example 167, (4aR,11bR)-N1^~10^~-(7-(cyclopropylmethoxy)pyrido[3,2-d]pyrimidin-4-yl)-3,3,11b-trimethyl-4a,5,6,11b-tetrahydro-3H-[1]benzoxepino[4,5-b][1,4]thiazine-2,10-diamine 4,4-dioxide], the IC50 in assay [1] (average IC50) was 0.008 µM; in assay [2] (setting [6]), 0.029 µM; in assay [3], 384 µM.

In the case of `CC1(C)C(N)=N[C@]2(C)c3cc(Nc4nccc5cc(C#N)cnc45)ccc3OCC[C@H]2S1(=O)=O` [Example 168, 8-(((4aR,11bR)-2-amino-3,3,11b-trimethyl-4,4-dioxido-4a,5,6,11b-tetrahydro-3H-[1]benzoxepino[4,5-b][1,4]thiazin-10-yl)amino)-1,7-naphthyridine-3-carbonitrile], the IC50 was 0.002 µM in assay [1] (average IC50), 0.003 µM in assay [2] (setting [6]) and > 44.4 µM in assay [3].
